Measurements taken from US20160106689A1, “USE” (Novabiotics Limited, priority 2014, published 2016).
≈ marks a conversion by molar mass, not a printed value. Counter-ions that a name gives are not always drawn. Like-named read-outs stand apart in the source and are kept apart here.

Test system: Pseudomonas aeruginosa (PAO1)
Experiment: MIC100 determination against the type strain of Pseudomonas aeruginosa (PAO1)
Format: cell-based
Conditions: for MIC: Pseudomonas aeruginosa
Procedure: The MIC100 using cysteamine, oxidised cysteamine and cystamine against the type strain of Pseudomonas aeruginosa (PAO1) was determined. Cysteamine and ‘oxidised’ cysteamine (containing some cystamine) were consistently equivalent at either 250 μg/ml or (as shown in the summary table below) 500 μg/ml. We oxidised the cysteamine by leaving the powder exposed to the air (in a sterile environment) for 5 days—during which time it changes in appearance (turning from an off white crystalline morphology to more of a white powder). It often also accrues water as it is hygroscopic and can also react with air to produce water.

[1] = PAO1, in CA-MHB, three replicates, repeated three times, read-out: MIC100 against PAO1 in CA-MHB
[2] = PAO1, in MHB, three replicates, repeated three times, read-out: MIC100 against PAO1 in MHB

`NCCS` [Cysteamine, cysteamine] showed an MIC [1] of 500 µg/mL (≈ 6.48 mM), an MIC [2] of 500 µg/mL (≈ 6.48 mM) and an MIC (PAO1, text statement, medium not stated, consistently either 250 or 500 across experiments, read-out: MIC100 against PAO1) of 250 µg/mL (≈ 3.24 mM). The “MIC100 against PAO1” value (medium not stated, consistently either 250 or 500 across experiments) was 500 µg/mL (≈ 6.48 mM).

For `NCCSSCCN` [Cystamine HCl, cystamine], the “antibacterial activity (in words)” value (PAO1, oxidised cysteamine compared with fresh cysteamine) was “shown to be antibacterial”, the MIC [1] was 1000 µg/mL and the MIC [2] was 1000 µg/mL.
